Biological target: human Edg-2 receptor (Homo sapiens, UniProt Q92633)
Test: Determination of Edg-2 receptor inhibition by FLIPR measurements (LPA-mediated calcium liberation)
Type: cell-based
Conditions: CHO cells overexpressing human Edg-2 receptor, LPA 100 nM, fluo-4 calcium fluorescence; read-out: Inhibitory concentrations IC50 for inhibition of the Edg-2 receptor
Method: A) Determination of Edg-2 Receptor Inhibition by Fluorescence Imaging Plate Reader (FLIPR) Measurements
The inhibition of the Edg-2 receptor (LPA1 receptor) by the compounds of the invention was quantified by the inhibitory effect on the LPA-mediated calcium liberation in a cell-based calcium fluorescence assay by use of Chinese hamster ovarian (CHO) cells in which the human Edg-2 receptor was stably overexpressed (Flp-In system, Invitrogen). […] Changes in intracellular calcium were determined by fluorescence measurement with the calcium-sensitive dye fluo-4 (Invitrogen) in a fluorescence imaging plate reader (FLIPR, […]).
CHO cells stably overexpressing the human Edg-2 receptor were seeded (40.000 per well) in black clear-bottomed poly-D-lysine-coated 96 well plates (Becton Dickinson, Biocoat cellware) approximately 18-24 h prior to the experiments. Cells were grown in an incubator at 37° C., 5% carbon dioxide and 95% humidity in cell culture media based on F-12 glutamax media (Gibco, #31765) supplemented with 1% (vol/vol) penicilline/streptomycine (PAN, #P06-07100), 10% (vol/vol) fetal calf serum (FCS, PAA, #A15-151) and hygromycin B (Invitrogen, #10687-010) 300 mg/l (final concentrations).
Prior to the FLIPR experiment, cells were loaded with fluo-4 acetoxymethyl ester (fluo-4 AM, Invitrogen, #F14202) for 60 min in an incubator at 37° C., 5% carbon dioxide and 95% humidity in dye-loading buffer consisting of Hanks' Balanced Salt Solution (HBSS, Invitrogen, #14065049) supplemented with fluo-4 AM at 2 μM (all data given for final concentration), Pluronic® F-127 0.05% (vol/vol) (Invitrogen, #P-3000 MP), HEPES 20 mM (Gibco, #15630), probenecid 2.5 mM (Sigma, #P-8761) and bovine serum albumin 0.05% (BSA, Sigma, #A-6003), adjusted to pH 7.5 with sodium hydroxide. During cell loading, fluo-4 AM is cleaved by intracellular esterase resulting in trapping of the dye fluo-4 within the cells. Loading was terminated by washing of the cells in a cell washer (Tecan Power washer) three times with the buffer specified afore but without fluo-4 AM and BSA. This latter buffer was also used as the buffer in the subsequent cell fluorescence measurements.
The dye-loaded and washed cells were pre-incubated for approximately 5 min with various concentrations of the test compound added as a solution in DMSO (0.3% vol/vol maximum final concentration of DMSO), or with DMSO in the respective concentration only (positive control). Subsequent addition of LPA (18:1, 1-oleoyl-sn-glycerol 3-phosphate; 100 nM final concentration) leads to liberation of intracellular calcium from internal stores resulting in a large transient increase of the fluo-4 fluorescence signal which was monitored over approximately 3 min. The percent inhibition caused by the test compound was determined from the maximum fluorescence response after LPA addition to cells pre-incubated with the compound as compared to the maximum fluorescence response after LPA addition to cells pre-incubated with DMSO only. All fluorescence values were corrected for the baseline fluorescence values obtained with cells which were pre-incubated with DMSO only and were not treated with LPA (baseline control). All measurements were performed in triplicate. From the percent inhibitions the inhibitory concentration IC50 was determined.

Sequence of human Edg-2 receptor (Q92633 whole entry): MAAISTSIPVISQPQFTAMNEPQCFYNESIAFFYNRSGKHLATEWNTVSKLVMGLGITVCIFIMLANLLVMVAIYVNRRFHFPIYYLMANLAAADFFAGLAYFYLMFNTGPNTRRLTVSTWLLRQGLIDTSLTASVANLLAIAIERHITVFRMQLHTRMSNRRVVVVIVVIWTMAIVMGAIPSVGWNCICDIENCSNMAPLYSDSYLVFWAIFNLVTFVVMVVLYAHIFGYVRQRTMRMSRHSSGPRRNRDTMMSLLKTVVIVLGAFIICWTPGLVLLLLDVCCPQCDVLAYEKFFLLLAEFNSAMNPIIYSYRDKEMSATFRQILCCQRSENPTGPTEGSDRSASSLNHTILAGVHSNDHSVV

Row | Compound | IC50 [nM]
1 | COc1ccc(C(=O)N[C@@]2(C(=O)O)C[C@@H]3CC[C@H]2O3)cc1OCCc1cccc(C)c1 (racemic) [Example 126, (1R,2S,4S)-2-[4-Methoxy-3-(2-m-tolyl-ethoxy)-benzoylamino]-7-oxa-bicyclo[2.2.1]heptane-2-carboxylic acid and (1S,2R,4R)-2-[4-methoxy-3-(2-m-tolyl-ethoxy)-benzoylamino]-7-oxa-bicyclo[2.2.1]heptane-2-carboxylic acid] | < 100
2 | COc1ccc(C(=O)NC2(C(=O)O)CCCC2OCc2ccccc2)cc1OCCc1cccc(C)c1 (single isomer, unassigned) [Example 66, 2-Benzyloxy-1-[4-methoxy-3-(2-m-tolyl-ethoxy)-benzoylamino]-cyclopentanecarboxylic acid] | 100 to 1000
3 | COc1ccc(C(=O)NC2(C(=O)O)CCCCCC2)cc1OCCc1cc(C)ccc1F [Example 1, 1-{3-[2-(2-Fluoro-5-methyl-phenyl)-ethoxy]-4-methoxy-benzoylamino}-cycloheptanecarboxylic acid] | 100 to 1000
4 | COc1ccc(C(=O)NC2(C(=O)O)CCCCCC2)cc1OCCc1cc(Cl)ccc1F [Example 3, 1-{3-[2-(5-Chloro-2-fluoro-phenyl)-ethoxy]-4-methoxy-benzoylamino}-cycloheptanecarboxylic acid] | < 100
5 | COc1ccc(C(=O)NC2(C(=O)O)CCCCCC2)cc1OCCc1c(C)n[nH]c1C [Example 4] | 100 to 1000
6 | COc1ccc(C(=O)NC2(C(=O)O)CCCCCC2)cc1OCCc1cc(OC(F)(F)F)ccc1F [Example 5] | < 100
7 | COc1ccc(C(=O)NC2(C(=O)O)CCCCCC2)cc1OCCc1cccs1 [Example 6] | 100 to 1000
8 | COc1ccc(C(=O)NC2(C(=O)O)CCCCCC2)cc1OCCc1ccccc1 [Example 8] | < 100
9 | COc1ccc(C(=O)NC2(C(=O)O)CCCCCC2)cc1OCC(C)c1ccccc1 (stereo not drawn) [Example 9] | < 100
10 | COc1ccc(C(=O)NC2(C(=O)O)CCCCCC2)cc1OCCc1ccsc1 [Example 11, 1-{3-[2-(thiophen-3-yl)-ethoxy]-4-methoxy-benzoylamino]-cycloheptanecarboxylic acid] | 100 to 1000
11 | COc1ccc(C(=O)NC2(C(=O)O)CCCCCC2)cc1OCC1CC=CCC1 (stereo not drawn) [Example 12] | 100 to 1000
12 | COc1ccc(C(=O)NC2(C(=O)O)CCCCCC2)cc1OCCc1ccccc1F [Example 13] | < 100
13 | CCC(COc1cc(C(=O)NC2(C(=O)O)CCCCCC2)ccc1OC)c1ccccc1 (stereo not drawn) [Example 14] | 100 to 1000
14 | COc1ccc(C(=O)NC2(C(=O)O)CCCCCC2)cc1OCCc1ccc(Cl)cc1Cl [Example 15] | 1000 to 30000
15 | COc1ccc(C(=O)NC2(C(=O)O)CCCCCC2)cc1OCCc1c(F)cccc1Cl [Example 16] | < 100
16 | COc1ccc(C(=O)NC2(C(=O)O)CCCCCC2)cc1OCCc1cc(Cl)ccc1Cl [Example 17] | < 100
17 | COc1ccc(C(=O)NC2(C(=O)O)CCCCCC2)cc1OCCc1cc(C)ccc1C [Example 18] | 100 to 1000
18 | COc1ccc(C(=O)NC2(C(=O)O)CCCCCC2)cc1OCCc1ccccc1C [Example 19] | 100 to 1000
19 | COc1ccc(C(=O)NC2(C(=O)O)CCCCCC2)cc1OCCc1cc(F)ccc1F [Example 20] | < 100
20 | COc1ccc(C(=O)NC2(C(=O)O)CCCCCC2)cc1OCCc1cccc(Cl)c1F [Example 21] | 100 to 1000
21 | COc1ccc(C(=O)NC2(C(=O)O)CCCCCC2)cc1OCC1(c2ccccc2)COC1 [Example 22] | < 100
22 | COc1ccc(C(=O)NC2(C(=O)O)CCCCCCC2)cc1OCCc1cc(C)ccc1F [Example 24, 1-{3-[2-(2-Fluoro-5-methyl-phenyl)-ethoxy]-4-methoxy-benzoylamino}-cyclooctanecarboxylic acid] | 100 to 1000
23 | COc1ccc(C(=O)NC2(C(=O)O)C[C@H]3CC[C@]2(C)C3(C)C)cc1OCCc1cccc(C)c1 (stereo partly drawn) [Example 39] | 1000 to 30000
24 | C=CC1CC1(NC(=O)c1ccc(OC)c(OCCc2cccc(C)c2)c1)C(=O)O (stereo not drawn) [Example 40] | 100 to 1000
25 | CCC1CC1(NC(=O)c1ccc(OC)c(OCCc2cccc(C)c2)c1)C(=O)O (stereo not drawn) [Example 41] | < 100

Continued, values first:

Row | IC50 [nM] | Compound
26 | < 100 | COc1ccc(C(=O)NC2(C(=O)O)CCCCCC2)cc1OCCc1cccc(C)c1 [Example 2, 1-[4-Methoxy-3-(2-m-tolyl-ethoxy)-benzoylamino]-cycloheptanecarboxylic acid]
27 | < 100 | COc1cccc(CCOc2cc(C(=O)NC3(C(=O)O)CCCCCC3)ccc2OC)c1 [Example 7]
28 | < 100 | COc1ccc(C(=O)NC2(C(=O)O)CCCCCC2)cc1OCCc1cccc(Cl)c1 [Example 10]
29 | 100 to 1000 | COc1ccc(C(=O)NC2(C(=O)O)CCCCCCC2)cc1OCCc1cccc(C)c1 [Example 23, 1-[4-Methoxy-3-(2-m-tolyl-ethoxy)-benzoylamino]-cyclooctanecarboxylic acid]
30 | 1000 to 30000 | COc1ccc(C(=O)NC2(C(=O)O)CCCOCC2)cc1OCCc1cccc(C)c1 (stereo not drawn) [Example 25, 4-[4-Methoxy-3-(2-m-tolyl-ethoxy)-benzoylamino]-oxepane-4-carboxylic acid]
31 | < 100 | COc1ccc(C(=O)NC2(C(=O)O)CCCC(C)CC2)cc1OCCc1cccc(C)c1 (stereo not drawn) [Example 26]
32 | < 100 | COc1ccc(C(=O)NC2(C(=O)O)CCC(C(F)(F)F)CC2)cc1OCCc1cccc(C)c1 (stereo not drawn) [Example 28]
33 | < 100 | COc1ccc(C(=O)NC2(C(=O)O)CCC(C(C)C)CC2)cc1OCCc1cccc(C)c1 (stereo not drawn) [Example 29]
34 | < 100 | CCC1CCC(NC(=O)c2ccc(OC)c(OCCc3cccc(C)c3)c2)(C(=O)O)CC1 (stereo not drawn) [Example 30]
35 | < 100 | COc1ccc(C(=O)NC2(C(=O)O)CC3CCC(C3)C2)cc1OCCc1cccc(C)c1 (stereo not drawn) [Example 31]
36 | 1000 to 30000 | COc1ccc(C(=O)NC2(C(=O)O)CCCCC2C)cc1OCCc1cccc(C)c1 (stereo not drawn) [Example 32]
37 | < 100 | COc1ccc(C(=O)NC2(C(=O)O)CCC(C)C2)cc1OCCc1cccc(C)c1 (stereo not drawn) [Example 33]
38 | 1000 to 30000 | COc1ccc(C(=O)NC2(C(=O)O)CCC2)cc1OCCc1cccc(C)c1 [Example 34]
39 | 1000 to 30000 | COc1ccc(C(=O)NC2(C(=O)O)CCCC2)cc1OCCc1cccc(C)c1 [Example 35]
40 | 100 to 1000 | COc1ccc(C(=O)NC2(C(=O)O)CCSCC2)cc1OCCc1cccc(C)c1 [Example 36]
41 | 1000 to 30000 | COc1ccc(C(=O)NC2(C(=O)O)CCOCC2)cc1OCCc1cccc(C)c1 [Example 37]
42 | 100 to 1000 | COc1ccc(C(=O)NC2(C(=O)O)CCCCC2)cc1OCCc1cccc(C)c1 [Example 38]
43 | < 100 | COc1ccc(C(=O)N[C@]2(C(=O)O)CC[C@@H](C)CC2)cc1OCCc1cccc(C)c1 [Example 43, trans-1-[4-Methoxy-3-(2-m-tolyl-ethoxy)-benzoylamino]-4-methyl-cyclohexanecarboxylic acid]
44 | 100 to 1000 | COc1ccc(C(=O)NC2(C(=O)O)CCC(F)CC2)cc1OCCc1cccc(C)c1 (stereo not drawn) [Example 44]
45 | 100 to 1000 | COc1ccc(C(=O)NC2(C(=O)O)CCC(C)(C)CC2)cc1OCCc1cccc(C)c1 [Example 45]
46 | < 100 | COc1ccc(C(=O)NC2(C(=O)O)CCCC(C)CC2)cc1OCCc1cccc(C)c1 (stereo not drawn) [Example 46]
47 | < 100 | COc1ccc(C(=O)NC2(C(=O)O)CC3CCC(C3)C2)cc1OCCc1cccc(C)c1 (stereo not drawn) [Example 47]
48 | 1000 to 30000 | COc1ccc(C(=O)NC2(C(=O)O)CCCCC2C)cc1OCCc1cccc(C)c1 (stereo not drawn) [Example 48]
49 | 1000 to 30000 | COc1ccc(C(=O)NC2(C(=O)O)CCCC2C)cc1OCCc1cccc(C)c1 (stereo not drawn) [Example 49]
50 | < 100 | CCC1CCC(NC(=O)c2ccc(OC)c(OCCc3cccc(C)c3)c2)(C(=O)O)CC1 (stereo not drawn) [Example 50]
51 | < 100 | COc1ccc(C(=O)NC2(C(=O)O)CCCC3(CC2)OCCO3)cc1OCCc1cccc(C)c1 (stereo not drawn) [Example 51, 8-[4-Methoxy-3-(2-m-tolyl-ethoxy)-benzoylamino]-1,4-dioxa-spiro[4.6]undecane-8-carboxylic acid]
